# Numbering of substitutions follows the chain as printed. Like-named read-outs stand apart in the source and are kept apart here.
# Legend:
# TbAQP2 = target: T1, TbAQP2 (Trypanosoma brucei brucei, UniProt Q6ZXT3)
# T1 sequence (Q6ZXT3 1-312): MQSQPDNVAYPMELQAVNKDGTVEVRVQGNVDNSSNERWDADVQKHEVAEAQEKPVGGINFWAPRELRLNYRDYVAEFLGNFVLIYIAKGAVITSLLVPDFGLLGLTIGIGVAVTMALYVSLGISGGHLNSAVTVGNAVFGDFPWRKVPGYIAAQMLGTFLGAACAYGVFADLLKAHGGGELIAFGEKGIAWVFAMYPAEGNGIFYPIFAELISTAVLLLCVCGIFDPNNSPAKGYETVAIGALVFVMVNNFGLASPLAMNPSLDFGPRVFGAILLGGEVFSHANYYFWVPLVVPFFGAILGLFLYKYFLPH
# TbAQP2 Leu264Arg = target: T2, TbAQP2 Leu264Arg (Trypanosoma brucei brucei, UniProt Q6ZXT3, L264R); assay type: cell-based
# T2 sequence (Q6ZXT3 1-312 L264R): T1 sequence (Q6ZXT3 1-312) with L264R
# TbAQP2 Asp265Ala = TbAQP2 Asp265Ala (Trypanosoma brucei brucei, UniProt Q6ZXT3, D265A); assay: cell-based; settings: read-out: IC50, pentamidine inhibition of TbAQP2 Asp265Ala
smiles,measurement,setting,value
N=CN [formamidine],permeability of TbAQP2 for small cations,TbAQP2; not told,impermeable
"NCC(O)CO (centres unmarked) [3-aminopropane-1,2-diol]",rate of passage through TbAQP2 relative to glycerol,TbAQP2; pH 9.2,two thirds the rate of glycerol
N=C(N)c1ccc(OCCCCCOc2ccc(C(=N)N)cc2)cc1 [pentamidine],inhibition of TbAQP2 Leu264Arg,TbAQP2 Leu264Arg,failed to inhibit
same,IC50,TbAQP2 Asp265Ala; pH 2.5,5.8 µM
same,IC50,TbAQP2 Asp265Ala; pH 7.2,4.5 µM

# Reference: paper PMC4734766, “Pentamidine Is Not a Permeant but a Nanomolar Inhibitor of the Trypanosoma brucei Aquaglyceroporin-2” (PLoS Pathogens, 2016)
